ChEMBL document CHEMBL1201862, “PubChem BioAssay data set” (2004)
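Cells were grown in 96-well plates and exposed to each compound for 48 hours at five concentrations; endpoints were interpolated linearly between bracketing concentrations, or set to the highest concentration if not reached. Here, GI50 denotes the concentration required for 50% inhibition of growth.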 Calls of active or inactive are those of the source. Rule as the data show it: active = GI50 up to about 1.1 µM and inactive = higher.

Columns and labels:
Experiment in all cases: inhibition of tumour cell growth, NCI panel, 48 h
OVCAR-5 = test system: OVCAR-5
UACC-257 = test system: UACC-257
SK-OV-3 = test system: SK-OV-3
RPMI-8226 = test system: RPMI-8226
MOLT-4 = test system: MOLT-4
RXF 631 = test system: RXF 631
KM12 = test system: KM12
NCI-H23 = test system: NCI-H23
HCT-15 = test system: HCT-15
LOX IMVI = test system: LOX IMVI
M19-MEL = test system: M19-MEL
UO-31 = test system: UO-31
IGROV-1 = test system: IGROV-1
A549 = test system: A549
SR = test system: SR
LXFL 529 = test system: LXFL 529
786-0 = test system: 786-0
HOP-62 = test system: HOP-62
NCI-H522 = test system: NCI-H522
CCRF-CEM = test system: CCRF-CEM
Malme-3M = test system: Malme-3M
HL-60 = test system: HL-60
SNB-78 = test system: SNB-78
TK-10 = test system: TK-10
HOP-92 = test system: HOP-92
SK-MEL-28 = test system: SK-MEL-28
SF-268 = test system: SF-268
EKVX = test system: EKVX
OVCAR-4 = test system: OVCAR-4
NCI-H226 = test system: NCI-H226
HCT-116 = test system: HCT-116
U-251 = test system: U-251
SK-MEL-2 = test system: SK-MEL-2
NCI-H460 = test system: NCI-H460
SF-539 = test system: SF-539
HCC 2998 = test system: HCC 2998
RXF 393 = test system: RXF 393
SNB-19 = test system: SNB-19
CAKI-1 = test system: CAKI-1
UACC-62 = test system: UACC-62
DMS-114 = test system: DMS-114
DLD-1 = test system: DLD-1
HT-29 = test system: HT-29
M14 = test system: M14
SF-295 = test system: SF-295
SN12C = test system: SN12C
OVCAR-8 = test system: OVCAR-8
HOP-18 = test system: HOP-18
XF498 = test system: XF498
K562 = test system: K562
ACHN = test system: ACHN
SW-620 = test system: SW-620
SK-MEL-5 = test system: SK-MEL-5
OVCAR-3 = test system: OVCAR-3

CC(=O)/C(=C\C1=CCCO1)C(=O)Nc1ccccc1C
GI50 (OVCAR-5): > 100 µM (inactive) | GI50 (UACC-257): > 100 µM (inactive) | GI50 (SK-OV-3): > 100 µM (inactive) | GI50 (RPMI-8226): > 100 µM (inactive) | GI50 (MOLT-4): > 100 µM (inactive) | GI50 (RXF 631): > 100 µM (inactive) | GI50 (KM12): > 100 µM (inactive) | GI50 (NCI-H23): > 100 µM (inactive) | GI50 (HCT-15): > 100 µM | GI50 (LOX IMVI): > 100 µM (inactive) | GI50 (M19-MEL): > 100 µM (inactive) | GI50 (UO-31): > 100 µM (inactive) | GI50 (IGROV-1): > 100 µM (inactive) | GI50 (A549): > 100 µM (inactive) | GI50 (SR): > 100 µM (inactive) | GI50 (LXFL 529): > 100 µM (inactive) | GI50 (786-0): > 100 µM (inactive) | GI50 (HOP-62): > 100 µM (inactive) | GI50 (NCI-H522): > 100 µM (inactive) | GI50 (CCRF-CEM): > 100 µM (inactive) | GI50 (Malme-3M): > 100 µM (inactive) | GI50 (HL-60): > 100 µM (inactive) | GI50 (SNB-78): > 100 µM (inactive) | GI50 (TK-10): > 100 µM (inactive) | GI50 (HOP-92): > 100 µM (inactive) | GI50 (SK-MEL-28): > 10 µM (inactive) | GI50 (SF-268): > 100 µM (inactive) | GI50 (EKVX): > 100 µM (inactive) | GI50 (OVCAR-4): > 100 µM (inactive) | GI50 (NCI-H226): > 100 µM (inactive) | GI50 (HCT-116): > 100 µM (inactive) | GI50 (U-251): > 100 µM (inactive) | GI50 (SK-MEL-2): > 100 µM (inactive) | GI50 (NCI-H460): > 100 µM (inactive) | GI50 (SF-539): > 100 µM (inactive) | GI50 (HCC 2998): > 100 µM (inactive) | GI50 (RXF 393): > 100 µM (inactive) | GI50 (SNB-19): > 100 µM (inactive) | GI50 (CAKI-1): > 100 µM (inactive) | GI50 (UACC-62): > 100 µM (inactive) | GI50 (DMS-114): > 100 µM (inactive) | GI50 (DLD-1): > 100 µM (inactive) | GI50 (HT-29): > 100 µM (inactive) | GI50 (M14): > 100 µM (inactive) | GI50 (SF-295): > 100 µM (inactive) | GI50 (SN12C): > 100 µM (inactive) | GI50 (OVCAR-8): > 100 µM (inactive) | GI50 (HOP-18): > 100 µM (inactive) | GI50 (XF498): > 100 µM (inactive) | GI50 (K562): > 100 µM (inactive) | GI50 (ACHN): > 100 µM (inactive) | GI50 (SW-620): > 100 µM (inactive) | GI50 (SK-MEL-5): > 100 µM (inactive) | GI50 (OVCAR-3): > 100 µM (inactive)
